# From ChEMBL document CHEMBL4007390, “Design, synthesis and biological evaluation of indolin-2-one-based derivatives as potent, selective and efficacious inhibitors of FMS-like tyrosine kinase3 (FLT3)” (Eur J Med Chem, 2017)
# How the values were obtained:
# [1] = molecular target: Ribosomal protein S6 kinase beta-1 (Homo sapiens) (UniProt P23443); assay: Inhibition of human RPS6KB1 at 0.1 uM relative to control
# HUVEC = assay: Antiproliferative activity against HUVEC after 72 hrs by MTS assay; format: cell-based; conditions: Homo sapiens
# MDA-MB-231 = assay: Antiproliferative activity against human MDA-MB-231 cells harboring K-Ras/B-Raf after 72 hrs by MTS assay; format: functional, cell-based; conditions: MDA-MB-231, 72 h
# [2] = molecular target: Mast/stem cell growth factor receptor Kit (Homo sapiens, UniProt P10721); assay: Inhibition of human KIT
# Chain of Mast/stem cell growth factor receptor Kit (P10721 whole entry): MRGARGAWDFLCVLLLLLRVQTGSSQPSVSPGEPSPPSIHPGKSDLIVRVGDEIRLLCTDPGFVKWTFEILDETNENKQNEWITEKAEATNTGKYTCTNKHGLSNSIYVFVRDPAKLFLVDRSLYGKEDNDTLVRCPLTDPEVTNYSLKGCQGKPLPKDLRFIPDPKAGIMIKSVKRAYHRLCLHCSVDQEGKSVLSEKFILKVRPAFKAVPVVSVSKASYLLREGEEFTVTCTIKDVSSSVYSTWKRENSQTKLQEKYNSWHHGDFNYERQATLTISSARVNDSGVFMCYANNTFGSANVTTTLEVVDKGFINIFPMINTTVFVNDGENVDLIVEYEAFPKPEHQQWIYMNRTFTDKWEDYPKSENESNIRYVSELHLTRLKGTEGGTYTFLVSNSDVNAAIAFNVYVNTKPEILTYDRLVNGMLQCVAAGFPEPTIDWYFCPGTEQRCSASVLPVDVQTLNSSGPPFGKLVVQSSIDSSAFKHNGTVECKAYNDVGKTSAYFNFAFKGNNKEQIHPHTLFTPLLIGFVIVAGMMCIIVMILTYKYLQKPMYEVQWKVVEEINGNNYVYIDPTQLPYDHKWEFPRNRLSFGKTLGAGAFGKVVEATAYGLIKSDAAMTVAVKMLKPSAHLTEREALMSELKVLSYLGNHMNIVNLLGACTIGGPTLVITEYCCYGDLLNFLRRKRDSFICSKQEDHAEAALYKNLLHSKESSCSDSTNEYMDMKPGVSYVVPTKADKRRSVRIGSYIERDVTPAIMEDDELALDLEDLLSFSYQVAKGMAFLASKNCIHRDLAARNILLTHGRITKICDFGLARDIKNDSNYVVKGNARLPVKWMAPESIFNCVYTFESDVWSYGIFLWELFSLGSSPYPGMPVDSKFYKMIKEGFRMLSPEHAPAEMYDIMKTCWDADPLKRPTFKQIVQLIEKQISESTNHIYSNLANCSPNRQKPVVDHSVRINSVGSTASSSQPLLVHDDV
# [3] = test system: Receptor-type tyrosine-protein kinase FLT3 (Homo sapiens), P36888 [D835Y]; conditions: 0.1 uM
# Homo sapiens = species on record: Homo sapiens; assay: Inhibition of human FLT3 ITD mutant at 0.1 uM relative to control
# [4] = molecular target: Fibroblast growth factor receptor 1 (Homo sapiens) (UniProt P11362); assay: Inhibition of human FGFR1 at 0.1 uM relative to control
# Chain of Fibroblast growth factor receptor 1 (Homo sapiens) (P11362 22-822 limits assumed): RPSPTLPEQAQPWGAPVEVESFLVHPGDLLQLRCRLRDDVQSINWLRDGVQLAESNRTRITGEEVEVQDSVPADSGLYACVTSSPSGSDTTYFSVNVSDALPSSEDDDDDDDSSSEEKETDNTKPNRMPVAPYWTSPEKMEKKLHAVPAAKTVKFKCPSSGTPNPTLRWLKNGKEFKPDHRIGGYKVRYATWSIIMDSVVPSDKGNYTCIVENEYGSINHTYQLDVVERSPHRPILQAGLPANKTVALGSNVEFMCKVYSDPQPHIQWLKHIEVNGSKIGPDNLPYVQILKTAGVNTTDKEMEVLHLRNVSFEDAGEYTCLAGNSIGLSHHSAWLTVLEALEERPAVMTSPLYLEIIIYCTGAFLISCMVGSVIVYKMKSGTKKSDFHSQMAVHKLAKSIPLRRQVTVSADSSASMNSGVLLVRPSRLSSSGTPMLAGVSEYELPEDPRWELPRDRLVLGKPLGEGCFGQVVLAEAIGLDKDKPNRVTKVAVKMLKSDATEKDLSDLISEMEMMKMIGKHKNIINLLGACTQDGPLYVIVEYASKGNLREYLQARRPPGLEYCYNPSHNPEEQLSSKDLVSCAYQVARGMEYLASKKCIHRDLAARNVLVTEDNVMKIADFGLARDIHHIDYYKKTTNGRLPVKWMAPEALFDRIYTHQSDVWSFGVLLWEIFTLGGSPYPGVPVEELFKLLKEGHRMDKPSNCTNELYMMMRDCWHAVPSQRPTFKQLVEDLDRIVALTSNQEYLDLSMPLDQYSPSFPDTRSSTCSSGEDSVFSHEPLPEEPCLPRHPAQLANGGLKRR
# [5] = molecular target: Tyrosine-protein kinase receptor UFO (Homo sapiens) (UniProt P30530); assay: Inhibition of human AXL at 0.1 uM relative to control
# [6] = molecular target: Serine/threonine-protein kinase PLK1 (Homo sapiens) (UniProt P53350); assay: Inhibition of human PLK1 at 0.1 uM relative to control
# MOLM-13 = assay: Antiproliferative activity against human MOLM13 cells harboring FLT3 ITD mutant after 72 hrs by MTS assay; conditions: MOLM-13, 72 h
# [7] = molecular target: Platelet-derived growth factor receptor beta (Homo sapiens) (UniProt P09619); assay: Inhibition of human PDGFRbeta at 0.1 uM relative to control
# [8] = molecular target: Insulin receptor (Homo sapiens) (UniProt P06213); assay: Inhibition of human INSR at 0.1 uM relative to control
# Chain of Insulin receptor (Homo sapiens) (P06213 28-758 limits assumed): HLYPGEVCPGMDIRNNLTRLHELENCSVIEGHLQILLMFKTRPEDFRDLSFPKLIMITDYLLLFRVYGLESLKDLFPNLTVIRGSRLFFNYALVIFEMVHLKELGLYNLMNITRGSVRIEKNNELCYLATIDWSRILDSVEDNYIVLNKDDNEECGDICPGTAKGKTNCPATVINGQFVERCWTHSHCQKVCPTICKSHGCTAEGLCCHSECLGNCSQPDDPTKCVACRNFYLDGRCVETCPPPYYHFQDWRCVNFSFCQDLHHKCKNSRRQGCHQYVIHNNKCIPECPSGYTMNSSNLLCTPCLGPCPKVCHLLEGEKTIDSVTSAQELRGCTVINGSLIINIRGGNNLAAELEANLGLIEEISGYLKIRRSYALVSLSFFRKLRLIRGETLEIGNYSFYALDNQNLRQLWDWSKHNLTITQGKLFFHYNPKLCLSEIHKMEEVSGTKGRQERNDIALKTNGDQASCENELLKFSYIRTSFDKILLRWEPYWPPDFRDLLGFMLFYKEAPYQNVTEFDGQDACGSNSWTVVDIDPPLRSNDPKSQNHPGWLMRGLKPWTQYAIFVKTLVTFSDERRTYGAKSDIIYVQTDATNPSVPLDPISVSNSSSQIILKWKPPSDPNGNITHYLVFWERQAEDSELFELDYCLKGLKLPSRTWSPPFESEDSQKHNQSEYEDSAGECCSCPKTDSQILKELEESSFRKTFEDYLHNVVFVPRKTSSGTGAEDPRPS
# Chain of Insulin receptor (Homo sapiens) (P06213 763-1382 limits assumed): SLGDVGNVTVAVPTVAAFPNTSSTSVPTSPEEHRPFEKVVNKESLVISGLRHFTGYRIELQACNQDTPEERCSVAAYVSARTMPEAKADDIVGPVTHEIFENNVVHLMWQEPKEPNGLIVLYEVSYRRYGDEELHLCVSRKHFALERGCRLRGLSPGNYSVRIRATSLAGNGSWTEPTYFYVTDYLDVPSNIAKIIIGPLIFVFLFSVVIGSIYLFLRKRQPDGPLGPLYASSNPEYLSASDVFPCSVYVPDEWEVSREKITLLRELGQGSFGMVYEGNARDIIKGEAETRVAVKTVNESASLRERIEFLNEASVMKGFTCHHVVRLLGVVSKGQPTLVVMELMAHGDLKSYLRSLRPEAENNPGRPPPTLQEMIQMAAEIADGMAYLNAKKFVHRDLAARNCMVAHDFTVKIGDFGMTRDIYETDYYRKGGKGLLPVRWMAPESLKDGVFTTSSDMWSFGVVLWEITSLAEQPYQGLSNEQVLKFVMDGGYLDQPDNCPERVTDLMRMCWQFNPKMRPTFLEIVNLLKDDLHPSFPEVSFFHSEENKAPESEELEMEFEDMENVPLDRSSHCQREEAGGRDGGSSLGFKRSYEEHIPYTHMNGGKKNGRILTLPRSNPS
# [9] = test system: Mast/stem cell growth factor receptor Kit (Homo sapiens), P10721 [T670I]; assay: Inhibition of human KIT T670I mutant at 0.1 uM relative to control
# Chain of Mast/stem cell growth factor receptor Kit (Homo sapiens), P10721 [T670I] (P10721 whole entry T670I): as the sequence (P10721 whole entry) above, with T670I counted along it
# Cytochrome P450 2C8 = Cytochrome P450 2C8 (Homo sapiens, UniProt P10632); assay: Inhibition of microsomal CYP2C8 (unknown origin) using amodiaquine as substrate preincubated for 5 mins followed by NADPH addition by LC-MS/MS analysis; format: ADME
# MV4-11 [10] = assay: Antitumor activity against human MV4-11 cells xenografted in Harlan nude mouse assessed as tumor growth inhibition at 10 mg/kg, ig bid for 20 days relative to control; format: functional; conditions: MV4-11, po, 480 h, read-out: TGI
# Cytochrome P450 3A4 [11] = molecular target: T1, Cytochrome P450 3A4 (Homo sapiens, UniProt P08684); assay: Inhibition of microsomal CYP3A4 (unknown origin) using midazolam as substrate preincubated for 5 mins followed by NADPH addition by LC-MS/MS analysis; format: ADME
# T1 sequence (P08684 whole entry): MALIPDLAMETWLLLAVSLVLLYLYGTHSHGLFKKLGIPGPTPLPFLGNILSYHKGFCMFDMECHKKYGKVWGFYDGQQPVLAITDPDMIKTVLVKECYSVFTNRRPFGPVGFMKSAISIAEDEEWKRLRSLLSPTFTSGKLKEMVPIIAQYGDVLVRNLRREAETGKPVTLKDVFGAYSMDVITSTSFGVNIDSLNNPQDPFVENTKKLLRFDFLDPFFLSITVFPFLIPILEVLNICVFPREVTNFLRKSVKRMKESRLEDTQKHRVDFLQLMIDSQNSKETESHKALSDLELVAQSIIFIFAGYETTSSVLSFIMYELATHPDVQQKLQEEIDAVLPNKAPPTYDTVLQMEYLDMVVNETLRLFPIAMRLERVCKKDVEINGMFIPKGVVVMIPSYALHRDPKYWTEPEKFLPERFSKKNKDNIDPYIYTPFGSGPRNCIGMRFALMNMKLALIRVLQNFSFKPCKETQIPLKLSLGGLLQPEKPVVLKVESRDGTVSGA
# [12] = molecular target: Serine/threonine-protein kinase B-raf (Homo sapiens) (UniProt P15056); assay: Inhibition of human BRAF at 0.1 uM relative to control
# [13] = molecular target: Epidermal growth factor receptor (Homo sapiens) (UniProt P00533); assay: Inhibition of human EGFR at 0.1 uM relative to control
# 786-0 = assay: Antiproliferative activity against human 786-O cells harboring VHL after 72 hrs by MTS assay; format: functional, cell-based; conditions: 786-0, 72 h
# COLO 205 = assay: Antiproliferative activity against human COLO205 cells harboring B-Raf after 72 hrs by MTS assay; format: functional, cell-based; conditions: COLO 205, 72 h
# [14] = molecular target: Cyclin-dependent kinase 2 (Homo sapiens) (UniProt P24941); assay: Inhibition of human CDK2 at 0.1 uM relative to control
# [15] = molecular target: Vascular endothelial growth factor receptor 1 (Homo sapiens) (UniProt P17948); assay: Inhibition of human VEGFR1 at 0.1 uM relative to control
# [16] = Oral bioavailability in Balb/c nude mouse at 40 mg/kg via gavage by LC-MS/MS analysis; format: ADME, organism-based; conditions: in vivo
# Cytochrome P450 2C9 = Cytochrome P450 2C9 (Homo sapiens, UniProt P11712); assay: Inhibition of microsomal CYP2C9 (unknown origin) using diclofenac as substrate preincubated for 5 mins followed by NADPH addition by LC-MS/MS analysis; format: ADME
# Kasumi 1 = assay: Antiproliferative activity against human Kasumi-1 cells harboring […] after 72 hrs by MTS assay; format: functional, cell-based; conditions: Kasumi 1, 72 h
# [17] = molecular target: Insulin-like growth factor 1 receptor (Homo sapiens) (UniProt P08069); assay: Inhibition of human IGF1R at 0.1 uM relative to control
# [18] = molecular target: Hepatocyte growth factor receptor (Homo sapiens) (UniProt P08581); assay: Inhibition of human c-MET at 0.1 uM relative to control
# Chain of Hepatocyte growth factor receptor (Homo sapiens) (P08581 whole entry): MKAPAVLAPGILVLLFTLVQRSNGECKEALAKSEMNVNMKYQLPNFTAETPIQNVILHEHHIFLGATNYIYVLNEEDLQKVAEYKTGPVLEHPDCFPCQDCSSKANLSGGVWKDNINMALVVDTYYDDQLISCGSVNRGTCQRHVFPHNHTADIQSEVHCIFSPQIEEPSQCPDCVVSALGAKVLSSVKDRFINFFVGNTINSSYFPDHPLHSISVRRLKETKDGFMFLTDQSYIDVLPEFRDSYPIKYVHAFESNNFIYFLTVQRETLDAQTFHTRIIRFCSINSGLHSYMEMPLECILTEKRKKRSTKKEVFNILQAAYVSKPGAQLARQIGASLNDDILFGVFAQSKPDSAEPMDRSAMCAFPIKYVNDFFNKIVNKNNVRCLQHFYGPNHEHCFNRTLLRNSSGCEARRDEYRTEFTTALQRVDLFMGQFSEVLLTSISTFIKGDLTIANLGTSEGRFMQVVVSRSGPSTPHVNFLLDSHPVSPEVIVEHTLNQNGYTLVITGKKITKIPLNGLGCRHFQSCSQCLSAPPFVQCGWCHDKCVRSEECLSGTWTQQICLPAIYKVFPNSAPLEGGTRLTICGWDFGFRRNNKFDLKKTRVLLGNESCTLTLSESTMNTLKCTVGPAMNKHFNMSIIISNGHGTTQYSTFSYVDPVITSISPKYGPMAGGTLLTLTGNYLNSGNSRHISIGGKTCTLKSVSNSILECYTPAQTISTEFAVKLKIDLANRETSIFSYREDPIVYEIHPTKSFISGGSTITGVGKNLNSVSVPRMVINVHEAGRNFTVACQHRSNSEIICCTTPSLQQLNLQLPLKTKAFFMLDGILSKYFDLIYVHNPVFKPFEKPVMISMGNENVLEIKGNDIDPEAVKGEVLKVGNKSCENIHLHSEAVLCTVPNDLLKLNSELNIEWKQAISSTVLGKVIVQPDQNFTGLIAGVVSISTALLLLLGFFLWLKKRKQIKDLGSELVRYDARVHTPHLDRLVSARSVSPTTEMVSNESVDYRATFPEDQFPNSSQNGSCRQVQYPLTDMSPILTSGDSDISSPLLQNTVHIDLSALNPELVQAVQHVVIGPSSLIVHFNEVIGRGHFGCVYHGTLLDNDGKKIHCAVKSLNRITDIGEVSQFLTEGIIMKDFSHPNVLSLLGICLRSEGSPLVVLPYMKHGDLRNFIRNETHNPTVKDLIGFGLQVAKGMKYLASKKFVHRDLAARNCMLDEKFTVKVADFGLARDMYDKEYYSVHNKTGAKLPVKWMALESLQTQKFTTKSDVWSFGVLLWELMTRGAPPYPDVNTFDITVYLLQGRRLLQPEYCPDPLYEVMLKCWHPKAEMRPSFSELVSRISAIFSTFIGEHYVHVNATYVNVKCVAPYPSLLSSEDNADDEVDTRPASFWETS
# Cytochrome P450 3A4 [19] = molecular target: T1, Cytochrome P450 3A4; assay: Inhibition of microsomal CYP3A4 (unknown origin) using testosterone as substrate preincubated for 5 mins followed by NADPH addition by LC-MS/MS analysis; format: ADME
# [20] = Cmax in Balb/c nude mouse at 40 mg/kg, po via gavage by LC-MS/MS analysis; format: ADME, organism-based; design: dose 40 mg/kg, route oral; conditions: in vivo
# [21] = test system: RAF proto-oncogene serine/threonine-protein kinase (Homo sapiens), P04049 [Y340D,Y341D]; assay: Inhibition of human RAF1 Y340D/Y341D double mutant at 0.1 uM relative to control
# MV4-11 [22] = assay: Antitumor activity against human MV4-11 cells xenografted in Harlan nude mouse assessed as tumor growth inhibition at 40 mg/kg, ig bid for 20 days relative to control; format: functional; conditions: MV4-11, po, 480 h, read-out: TGI
# [23] = Toxicity in Harlan nude mouse xenografted with human MV4-11 cells administered ig bid for 20 days; conditions: in vivo, po
# [24] = molecular target: Serine/threonine-protein kinase Nek6 (Homo sapiens) (UniProt Q9HC98); assay: Inhibition of human NEK6 at 0.1 uM relative to control
# NCI-H2228 = assay: Antiproliferative activity against human NCI-H2228 cells harboring ALK after 72 hrs by MTS assay; format: functional, cell-based; conditions: NCI-H2228, 72 h
# LC-2-ad = assay: Antiproliferative activity against human LC2/ad cells harboring RET after 72 hrs by MTS assay; format: functional, cell-based
# MV4-11 [25] = assay: Antitumor activity against human MV4-11 cells xenografted in Harlan nude mouse assessed as tumor growth inhibition at 5 mg/kg, ig bid for 20 days relative to control; format: functional; conditions: MV4-11, po, 480 h, read-out: TGI
# [26] = molecular target: Tyrosine-protein kinase JAK2 (Homo sapiens) (UniProt O60674); assay: Inhibition of human JAK2 at 0.1 uM relative to control
# Cytochrome P450 2B6 = Cytochrome P450 2B6 (Homo sapiens, UniProt P20813); assay: Inhibition of microsomal CYP2B6 (unknown origin) using bupropion as substrate preincubated for 5 mins followed by NADPH addition by LC-MS/MS analysis; format: ADME
# Cytochrome P450 2C19 = Cytochrome P450 2C19 (Homo sapiens, UniProt P33261); assay: Inhibition of microsomal CYP2C19 (unknown origin) using S-mephenytoin as substrate preincubated for 5 mins followed by NADPH addition by LC-MS/MS analysis; format: ADME
# Cytochrome P450 2D6 = Cytochrome P450 2D6 (Homo sapiens, UniProt P10635); assay: Inhibition of microsomal CYP2D6 (unknown origin) using dextromethorphan as substrate preincubated for 5 mins followed by NADPH addition by LC-MS/MS analysis; format: ADME
compound,measurement,setting,value
Cc1[nH]c(/C=C2\C(=O)Nc3ccc(F)cc32)c(C)c1NC(=O)[C@H]1CCCN1.Cl,inhibition,[1],8%
same,IC50,HUVEC,11.3 µM
same,IC50,MDA-MB-231,> 20 µM
same,IC50,[2],0.227 µM
same,inhibition,[3],93%
same,inhibition,Homo sapiens,105%
same,inhibition,[4],27%
same,inhibition,[5],44%
same,inhibition,[6],-3%
same,IC50,MOLM-13,0.0236 µM
same,inhibition,[7],48%
same,inhibition,[8],16%
same,inhibition,[9],77%
same,IC50,Cytochrome P450 2C8,> 33 µM
same,inhibition in vivo at 10 mg/kg,MV4-11 [10],88.7%
same,IC50,Cytochrome P450 3A4 [11],> 33 µM
same,inhibition,[12],0%
same,inhibition,[13],-1%
same,IC50,786-0,12.2 µM
same,IC50,COLO 205,6.6 µM
same,inhibition,[14],8%
same,inhibition,[15],30%
same,bioavailability,[16],59%
same,IC50,Cytochrome P450 2C9,> 33 µM
same,IC50,Kasumi 1,0.251 µM
same,inhibition,[17],13%
same,inhibition,[18],-8%
same,IC50,Cytochrome P450 3A4 [19],> 33 µM
same,Cmax,[20],709 ng/mL
same,inhibition,[21],18%
same,inhibition in vivo at 40 mg/kg,MV4-11 [22],100%
same,MTD at 480 h,[23],160 mg/kg/day
same,inhibition,[24],8%
same,IC50,NCI-H2228,3.44 µM
same,IC50,LC-2-ad,0.621 µM
same,inhibition in vivo at 5 mg/kg,MV4-11 [25],52.4%
same,inhibition,[26],-4%
same,IC50,Cytochrome P450 2B6,> 33 µM
same,IC50,Cytochrome P450 2C19,> 33 µM
same,IC50,Cytochrome P450 2D6,> 33 µM
